Structures are written as SMILES.

Experiment [1] deals with T1, Alpha-1A adrenergic receptor (Bos taurus, UniProt P18130).
T1 sequence (P18130 whole entry): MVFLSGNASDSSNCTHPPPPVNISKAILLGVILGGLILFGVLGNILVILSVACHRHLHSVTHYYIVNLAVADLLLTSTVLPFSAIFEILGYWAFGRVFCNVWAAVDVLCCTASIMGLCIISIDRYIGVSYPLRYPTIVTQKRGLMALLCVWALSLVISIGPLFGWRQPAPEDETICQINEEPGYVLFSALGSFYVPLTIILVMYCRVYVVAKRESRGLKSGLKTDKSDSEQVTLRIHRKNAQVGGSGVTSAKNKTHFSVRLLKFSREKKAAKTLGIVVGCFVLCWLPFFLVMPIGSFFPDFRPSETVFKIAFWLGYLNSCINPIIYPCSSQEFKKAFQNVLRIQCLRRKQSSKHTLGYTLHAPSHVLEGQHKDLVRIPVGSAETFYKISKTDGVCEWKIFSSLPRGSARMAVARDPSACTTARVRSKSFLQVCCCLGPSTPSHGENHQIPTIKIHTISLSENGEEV
Kind of experiment: Binding affinity of compound towards Alpha-1 adrenergic receptor using [3H]prazosin 0.5 nM ligand in frontal cortex calf was determined. It is filed as tissue-based.

The species entered for experiment [2] is Bos taurus. Nature of the experiment: Inhibition of [3H]ketanserin binding to 5-hydroxytryptamine 2 receptor of bovine frontal cortex at 10e-7 M. It is filed as tissue-based.
Experiment [3] has as its target Histamine H1 receptor (Rattus norvegicus, UniProt P31390). Nature of the experiment: Inhibition of [3H]pyrilamine binding to Histamine H1 receptor in rat cortex.
In experiment [4] the target is D(1A) dopamine receptor (Bos taurus, UniProt Q95136). Kind of experiment: Inhibition of [3H]SCH-23390 binding to Dopamine receptor D1 of bovine striatum. The format is tissue-based.
Experiment [5] is filed under the species Bos taurus. Kind of experiment: Inhibition of [3H]prazosin binding to Alpha-1 adrenergic receptor of calf frontal cortex at 10e-7 M. It is filed as tissue-based.
For experiment [6], the target named is T2, 5-hydroxytryptamine receptor 1A (Rattus norvegicus, UniProt P19327).
T2 sequence (P19327 whole entry): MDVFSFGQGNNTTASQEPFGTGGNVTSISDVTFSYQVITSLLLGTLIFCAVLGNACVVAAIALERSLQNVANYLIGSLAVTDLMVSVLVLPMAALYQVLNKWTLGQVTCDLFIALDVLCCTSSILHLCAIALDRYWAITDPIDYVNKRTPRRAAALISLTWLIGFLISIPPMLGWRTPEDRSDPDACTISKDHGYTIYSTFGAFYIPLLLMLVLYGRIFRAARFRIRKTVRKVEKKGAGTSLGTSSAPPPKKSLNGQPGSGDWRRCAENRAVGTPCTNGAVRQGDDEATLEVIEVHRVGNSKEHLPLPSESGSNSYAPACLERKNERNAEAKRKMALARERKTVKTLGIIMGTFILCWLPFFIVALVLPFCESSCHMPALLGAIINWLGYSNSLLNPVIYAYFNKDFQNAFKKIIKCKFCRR
Kind of experiment: Inhibition of forskolin-activated adenylate cyclase (cAMP) activity at 5-hydroxytryptamine 1A receptor in rat hippocampus. The format is functional, tissue-based.

Experiment [7] addresses Sigma non-opioid intracellular receptor 1 (Rattus norvegicus, UniProt Q9R0C9). Kind of experiment: Inhibition of [3H]DTG binding to sigma receptor in rat hippocampus. It is filed as tissue-based.
Experiment [8] concerns the target T3, 5-hydroxytryptamine receptor 1A (Rattus norvegicus) (UniProt P19327).
T3 sequence (whole entry): T2 sequence (P19327 whole entry)
Kind of experiment: Inhibition of [3H]8-OH-DPAT binding to 5-hydroxytryptamine 1A receptor in rat hippocampal membranes at 10e-7 M. The format is cell membranes. Particulars: Hippocampus, Membrane.

Experiment [9] deals with Rattus norvegicus. Kind of experiment: in vivo behavioral test for Lower Lip Retraction(LLR) (msad=minimum significant active dose) in rats. It is filed as functional.
The nature of experiment [10]: Inhibition of [3H]ketanserin binding to 5-hydroxytryptamine 2 receptor of bovine frontal cortex. The format is tissue-based, Bos taurus. The conditions noted are these: read-out: Ki.
Experiment [11] concerns the target T1, Alpha-1A adrenergic receptor. Nature of the experiment: Inhibition of [3H]prazosin binding to Alpha-1 adrenergic receptor in bovine frontal cortex. It is filed as tissue-based.
The target in experiment [12] is T2, 5-hydroxytryptamine receptor 1A. Nature of the experiment: Displacement of [3H]8-OH-DPAT from 5-hydroxytryptamine 1A receptor of rat hippocampal membranes. It is filed as cell membranes, Membrane.
Experiment [13] concerns the target T4, 5-hydroxytryptamine receptor 3B (Mus musculus, UniProt Q9JHJ5).
T4 sequence (Q9JHJ5 whole entry): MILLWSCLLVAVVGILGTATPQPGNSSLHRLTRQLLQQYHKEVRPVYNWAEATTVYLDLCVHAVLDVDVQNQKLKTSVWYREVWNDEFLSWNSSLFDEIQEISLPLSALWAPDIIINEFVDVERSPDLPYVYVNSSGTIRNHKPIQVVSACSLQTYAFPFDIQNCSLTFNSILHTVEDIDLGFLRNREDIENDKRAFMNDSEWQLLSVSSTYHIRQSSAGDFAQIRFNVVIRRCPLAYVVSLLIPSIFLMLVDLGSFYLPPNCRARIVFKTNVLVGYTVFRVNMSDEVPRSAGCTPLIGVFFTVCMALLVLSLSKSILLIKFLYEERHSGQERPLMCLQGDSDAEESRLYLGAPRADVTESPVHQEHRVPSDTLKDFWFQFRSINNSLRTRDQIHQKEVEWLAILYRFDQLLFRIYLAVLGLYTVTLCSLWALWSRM
Nature of the experiment: Inhibition of [3H]BRL-43694 binding to 5-hydroxytryptamine 3 receptor in NG cells 108-15. It is filed as cell-based.

Experiment [14] deals with D(2) dopamine receptor (Bos taurus, UniProt P20288). Nature of the experiment: Inhibition of [3H]raclopride binding to Dopamine receptor D2 of bovine striatum. It is filed as tissue-based.
Experiment [15] addresses D(2) dopamine receptor (Bos taurus) (UniProt P20288). Nature of the experiment: Inhibition of [3H]YM-09151-2 binding to Dopamine receptor D2 of bovine striatal preparations at 10e-7 M.

D(2) dopamine receptor (Bos taurus), sequence (P20288 whole entry): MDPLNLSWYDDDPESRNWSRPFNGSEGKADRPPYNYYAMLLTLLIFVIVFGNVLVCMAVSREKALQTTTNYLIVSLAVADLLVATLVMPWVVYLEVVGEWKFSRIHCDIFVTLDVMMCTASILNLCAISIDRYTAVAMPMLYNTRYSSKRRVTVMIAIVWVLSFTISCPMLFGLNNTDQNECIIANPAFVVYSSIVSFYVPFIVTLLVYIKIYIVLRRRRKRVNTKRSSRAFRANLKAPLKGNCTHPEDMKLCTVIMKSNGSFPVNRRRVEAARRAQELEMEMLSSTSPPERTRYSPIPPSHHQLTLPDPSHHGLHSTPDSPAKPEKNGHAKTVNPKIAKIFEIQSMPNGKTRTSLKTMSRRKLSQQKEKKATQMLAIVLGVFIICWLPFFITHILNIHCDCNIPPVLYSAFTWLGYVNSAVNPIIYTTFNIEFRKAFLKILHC
D(2) dopamine receptor, sequence (P20288 whole entry): as above
Histamine H1 receptor, sequence (P31390 whole entry): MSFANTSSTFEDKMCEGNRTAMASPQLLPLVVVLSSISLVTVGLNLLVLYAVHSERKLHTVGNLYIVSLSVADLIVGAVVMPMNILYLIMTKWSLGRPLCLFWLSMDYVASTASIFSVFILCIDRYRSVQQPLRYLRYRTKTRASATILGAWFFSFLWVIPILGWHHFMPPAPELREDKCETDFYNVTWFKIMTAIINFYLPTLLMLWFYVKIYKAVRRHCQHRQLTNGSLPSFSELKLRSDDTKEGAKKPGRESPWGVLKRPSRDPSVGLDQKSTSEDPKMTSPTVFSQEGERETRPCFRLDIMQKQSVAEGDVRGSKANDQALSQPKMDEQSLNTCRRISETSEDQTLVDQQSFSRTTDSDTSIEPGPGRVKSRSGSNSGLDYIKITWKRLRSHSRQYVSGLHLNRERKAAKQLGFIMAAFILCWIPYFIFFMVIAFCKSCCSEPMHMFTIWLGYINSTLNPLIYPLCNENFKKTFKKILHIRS
Sigma non-opioid intracellular receptor 1, sequence (Q9R0C9 whole entry): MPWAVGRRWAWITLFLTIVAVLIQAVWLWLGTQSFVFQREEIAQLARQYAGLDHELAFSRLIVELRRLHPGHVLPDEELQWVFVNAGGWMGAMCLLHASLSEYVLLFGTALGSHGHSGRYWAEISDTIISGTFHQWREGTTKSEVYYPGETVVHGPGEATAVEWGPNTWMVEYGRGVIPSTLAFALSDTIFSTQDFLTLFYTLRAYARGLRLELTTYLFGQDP
D(1A) dopamine receptor, sequence (Q95136 whole entry): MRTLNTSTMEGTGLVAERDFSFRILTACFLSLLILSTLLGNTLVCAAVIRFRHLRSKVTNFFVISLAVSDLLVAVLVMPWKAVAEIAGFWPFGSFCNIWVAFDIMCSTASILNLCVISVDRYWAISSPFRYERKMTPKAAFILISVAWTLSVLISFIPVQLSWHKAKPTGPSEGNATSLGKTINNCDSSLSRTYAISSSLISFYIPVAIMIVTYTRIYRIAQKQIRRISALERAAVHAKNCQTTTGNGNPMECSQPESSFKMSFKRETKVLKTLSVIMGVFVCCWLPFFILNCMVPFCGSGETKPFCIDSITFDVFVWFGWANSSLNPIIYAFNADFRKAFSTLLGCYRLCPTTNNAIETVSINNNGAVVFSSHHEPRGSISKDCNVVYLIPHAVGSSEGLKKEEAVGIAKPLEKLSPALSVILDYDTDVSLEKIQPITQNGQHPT

In general, Ki refers to a measure of affinity in units of concentration, obtained from inhibition or displacement. `COc1cccc(OC)c1OCCNCC1COc2ccccc2O1` (stereo not given) displayed a Ki in experiment [1] of 0.6 nM.

The inhibition is the percentage by which the read-out fell short of the control. A higher inhibition goes with strong suppression. One may read the IC50 as the concentration at which inhibition is half-maximal. For the compound `O=C(CCCN1CCN(C2CCCc3ccccc32)CC1)c1ccc(F)cc1` (stereo not given), the inhibition in experiment [2] stood at 20%; in experiment [5], 1%; in experiment [8], 37%; in experiment [15] it was 74%. For the same compound, the Ki in experiment [3] was 42 nM; in [4], 1000 nM; in [7] it was 30 nM; in [10], 66 nM; in experiment [11], 18 nM; in experiment [12], 17 nM. Moreover, the Ki is 3160 nM in [13] and 110 nM in experiment [14]. In addition, in [6], half-maximal inhibition (IC50) was put at 210 nM. Further, in [9], the LLR msad is >64 mg/kg.

Values taken from ChEMBL document CHEMBL1129976, “New benzocycloalkylpiperazines, potent and selective 5-HT1A receptor ligands” (J Med Chem, 1997).
